From ChEMBL document CHEMBL3817810, “Four new minor brominated indole related alkaloids with antibacterial activities from Laurencia similis” (2016)
≈ marks a conversion by molar mass, not a printed value.

Experiments:
Format in all cases: functional
Bacillus subtilis = experiment: Antibacterial activity against Bacillus subtilis by broth microdilution assay
Bacillus thuringiensis = experiment: Antibacterial activity against Bacillus thuringiensis by broth microdilution assay
Staphylococcus aureus = experiment: Antibacterial activity against Staphylococcus aureus by broth microdilution assay
[1] = test system: Agrobacterium tumefaciens; experiment: Antibacterial activity against Agrobacterium tumefaciens by broth microdilution assay
[2] = test system: Pseudomonas amygdali pv. lachrymans; experiment: Antibacterial activity against Pseudomonas lachrymans by broth microdilution assay
Ralstonia solanacearum = experiment: Antibacterial activity against Ralstonia solanacearum by broth microdilution assay
Xanthomonas vesicatoria = experiment: Antibacterial activity against Xanthomonas vesicatoria by broth microdilution assay

Row | SMILES | MIC (Bacillus subtilis) [µg/mL] | MIC (Bacillus thuringiensis) [µg/mL] | MIC (Staphylococcus aureus) [µg/mL] | MIC [1] [µg/mL] | MIC [2] [µg/mL] | MIC (Ralstonia solanacearum) [µg/mL] | MIC (Xanthomonas vesicatoria) [µg/mL]
1 | CC1(C)S[C@@H]2[C@H](NC(=O)Cc3ccccc3)C(=O)N2[C@H]1C(=O)O [PENICILLIN G] | 0.125 (≈ 0.374 µM) | 64 (≈ 191 µM) | 0.25 (≈ 0.748 µM) | 250 (≈ 748 µM) | 250 (≈ 748 µM) | 250 (≈ 748 µM) | 250 (≈ 748 µM)
2 | COC(=O)Nc1cc(Br)c(Br)cc1C(=O)OC | > 250 | > 250 | > 250 | > 250 | > 250 | > 250 | > 250
3 | CC(C)=C1C(=O)N(O)c2cc(Br)c(Br)cc21 | 50 (≈ 144 µM) | 50 (≈ 144 µM) | 12.5 (≈ 36 µM) | 12.5 (≈ 36 µM) | 50 (≈ 144 µM) | 50 (≈ 144 µM) | > 250
4 | Oc1ccc(Cc2c(Br)[nH]c3cc(Br)c(Br)cc23)cc1Br | 8 (≈ 14.8 µM) | 8 (≈ 14.8 µM) | 2 (≈ 3.71 µM) | 4 (≈ 7.42 µM) | 8 (≈ 14.8 µM) | 4 (≈ 7.42 µM) | 8 (≈ 14.8 µM)
5 | Cc1cc(C)c2[nH]c3cc(Br)c(Br)cc3c2c1 | > 250 | > 250 | > 250 | > 250 | > 250 | > 250 | 50 (≈ 142 µM)
